Measured values taken from ChEMBL document CHEMBL1158887, “Novel chromone derivatives from the fungus Aspergillus versicolor isolated from the marine sponge Xestospongia exigua” (J Nat Prod, 2003).
Active and inactive are the calls of the source. No cut-off for these calls is given here.

Key:
Assay type in all cases: functional, organism-based
Saccharomyces cerevisiae = experiment: Antimicrobial activity against Saccharomyces cerevisiae DMS 1333 at 5 and 10 ug after 24 hrs by agar diffusion method
Escherichia coli = experiment: Antimicrobial activity against Escherichia coli DMS 10290 at 5 and 10 ug after 24 hrs by agar diffusion method
Bacillus subtilis = experiment: Antimicrobial activity against Bacillus subtilis DMS 2109 at 5 and 10 ug after 24 hrs by agar diffusion method

| Structure (SMILES) | Activity (Saccharomyces cerevisiae) | Activity (Escherichia coli) | Activity (Bacillus subtilis) |
| --- | --- | --- | --- |
| Cc1cc2ccc3c(=O)c(C)c(C)oc3c2cn1 | inactive | inactive |  |
| COC1(C)Cc2ccc3c(=O)c(C)c(C)oc3c2CO1 (stereo not drawn) | inactive | inactive | inactive |
| COC1OC(C)=Cc2ccc3c(=O)c(C)c(C)oc3c21 (stereo not drawn) | inactive | inactive | inactive |
